What was measured:
Assay type in all cases: cell-based, human
COX2 = test: Relative COX2 mRNA expression in IL-1β-stimulated MKN-45 cells (real-time PCR); conditions: IL-1β-stimulated DMSO-treated cells = 100%, ACTB reference
Protocol: (§1) RNA was extracted from the cells used in Example 2 according to the manufacturer's protocol for ABI Prism 6100 Nucleic Acid PrepStation (a nucleic acid isolation system, product of Applied Biosystems). More specifically, after removal of the culture supernatant and washing with 1 mL of PBS, 250 μL of Nucleic Acid Purification Lysis Solution (Part No. 4305895, Applied Biosystems) was added, and then agitated using a shaker for 2 to 3 minutes. The Lysis Solution containing the cell lysate was collected, and the total amount was transferred to the wells of RNA Purification Tray (Part No. 4305673, Applied Biosystems), which had been pre-wet with 40 μL of Nucleic Acid Purification Wash Solution I (Part No. 4305891, Applied Biosystems) beforehand. Aspiration (20% pressure) was performed for 2 minutes to adsorb the sample onto the RNA Purification Tray, followed by sequentially adding and aspirating (20% pressure, 2 min.) 500 μL of Wash Solution I, Nucleic Acid Purification (Part No. 4305891, Applied Biosystems), 400 μL of Wash Solution II, Nucleic Acid Purification (Part No. 4305890, product of Applied Biosystems), 400 μL of the Wash Solution II, and 300 μL of the Wash Solution II in that order. Aspiration (90% pressure) was performed for 5 minutes to remove the water content from the RNA Purification Trays. After addition of 150 μL of Elution Solution, Nucleic Acid Purification (Part No. 4305893, product of Applied Biosystems), aspiration (20% pressure) was performed for 2 minutes, while collecting the outflow. This was used as collected RNA solution.
(§2) Absorbance of the collected RNA solution at 260 nm was measured using a microplate spectrophotometer (“SpectraMax Plus”, product of Molecular Devices) with an analysis software (“SOFTmaxPRO ver.3.1.2”, product of Molecular Devices), and the RNA concentration was determined from the absorbance. Likewise, absorbance at 280 nm was measured and the purity of the RNA was determined using the analysis software.
(§3) cDNA was synthesized according to the manufacturer's protocol for TaqMan® Reverse Transcription Reagents (Part No. N808-0234, product of Applied Biosystems). More specifically, about 0.5 μg of RNA, 2.5 μL of 10×RT buffer, 5.5 μL of MgCl2 solution, 5 μL of dNTP mixture, 1.25 μL of random hexamer (primers), 0.5 μL of RNase inhibitor, and 0.63 μL of MultiScribe Reverse Transcriptase (product of Applied Biosystems) were added to each collected RNA sample in a tube, and DEPC-treated water was added to make a total volume of 25 μL and stirred. A reaction consisting of 25° C. for 10 minutes, 48° C. for 30 minutes, and 95° C. for 5 minutes was performed using a PCR thermal cycler (“TaKaRa PCR Thermal Cycler Dice”, product of Takara Bio Inc.) to prepare a cDNA solution.
(§4) PCR was performed according to the manufacturer's protocol for TaqMan® Gene Expression Assays (product of Applied Biosystems). More specifically, 5 μL of TaqMan® Fast Universal PCR Master Mix (product of Applied Biosystems), 0.5 μL of TaqMan® Gene Expression Assays for the target gene (gene-specific probe and primer sets, product of Applied Biosystems), and 4.5 μL of the above-obtained cDNA solution were added to each sample and stirred. A PCR reaction consisting of heating at 95° C. for 20 seconds, followed by 40 cycles consisting of heating at 95° C. for 3 seconds and annealing and extension at 60° C. for 30 seconds was performed using a real-time PCR device (“Applied Biosystems 7500 Real-Time PCR System”) with SDS v1.4 Software (product of Applied Biosystems). Threshold cycle (Ct) values were calculated using the software.
(§5) The Assay IDs of the TaqMan® Gene Expression Assays for the target genes used are as follows:
(§6) The expression level of each gene was determined according to the following formula using the level of ACTB as a reference standard.
(§7) (Relative mRNA expression level)=2̂−{(Ct value of the target gene)−(Ct value of ACTB)} […]

TNFα = test: Relative TNFα mRNA expression in IL-1β-stimulated MKN-45 cells (real-time PCR); conditions: IL-1β-stimulated DMSO-treated cells = 100%, ACTB reference
Protocol: as §1, §2, §3, §4, §5, §6, §7

IL-8 = test: Relative IL-8 mRNA expression in IL-1β-stimulated MKN-45 cells (real-time PCR); conditions: IL-1β-stimulated DMSO-treated cells = 100%, ACTB reference
Protocol: as §1, §2, §3, §4, §5, §6, §7

NF-κB = test: NF-kappaB reporter assay (pNF-kappaB-SEAP) in IL-1β-stimulated MKN-45 cells; conditions: IL-1β 2 ng/mL for 6 hours, DMSO (0.05%) control = 1.00, triplicate
Protocol: pNF-kappaB-SEAP was obtained from Clonetech Laboratories Inc.
Cryopreserved MKN-45 cells (product of JCRB (Japanese Collection of Research Bioresources)) were thawed and cultured in a standard medium in an incubator (37° C., 5% CO2). Every three to five days, the cells were recovered by treatment with Trypsin-EDTA, then adequately diluted and subcultured. MKN-45 cells subcultured two or more times with a survival rate of 95% or more were used in each experiment.
The subcultured MKN-45 cells were harvested using Trypsin-EDTA solution, and the number of viable cells was counted. The cells were suspended in a standard medium to yield a 1.5×10^5 cells/mL suspension. A 24-well plate was seeded with 500 μL/well of the cell suspension, and the cells were cultured in an incubator (37° C., 5% CO2).
The day after seeding, transfection was performed according to the following protocol.
(4.1) Preparation of Plasmid Solution 4 μL of 0.1 μg/μL pNFkappaB-SEAP was placed into each well and diluted with 50 μL of OPTI-MEM I (product of Invitrogen Japan K.K.) by mixing by inversion.
1 μL of Lipofectamine 2000 reagent (product of Invitrogen) was placed into each well and diluted with 50 μL of OPTI-MEM I (product of Life Technologies Inc.) by mixing by inversion. The mixture was allowed to stand at room temperature for 5 to 10 minutes to prepare a Lipofectamine dilution.
The plasmid solution and the Lipofectamine dilution were mixed by inversion and allowed to stand at room temperature for 20 to 30 minutes to prepare a transfection mixture.
The culture medium was removed from the 24-well plate by suction. While care was taken not to dry the subcultured MKN-45 cells, the inner surface of the wells was washed with 1 mL/well of PBS. After the medium was replaced with 500 μL/well of OPTI-MEM I (product of Life Technologies Inc.), 100 μL/well of the transfection mixture was added, and the cells were cultured in a incubator (37° C., 5% CO2). After about 5 hours of incubation, the medium was replaced with a standard medium, and the cells were further cultured in a CO2 incubator (37° C., 5% CO2) until the following day.
On the following morning, the culture medium supernatant was removed by suction and replaced with 1 mL/well of the test compound solution or control solution diluted with a standard medium. The cells were cultured in a CO2 incubator (37° C., 5% CO2) for 1 hour. Each experiment was performed in triplicate.
200 ng/mL IL-1β was added in an amount of 10 μL/well (final concentration: 2 ng/mL), and the cells were cultured in a CO2 incubator (37° C., 5% CO2) for 6 hours.
A reporter assay was performed using Reporter Assay Kit-SEAP (product of Toyobo Co.) according to the manufacturer's protocol.
More specifically, 500 μL of the culture broth was transferred into a tube and centrifuged at 15,000 rpm for 5 minutes at 4° C. The supernatant was transferred into a 96-well white plate. The positive control included in the Reporter Assay Kit-SEAP, and a standard medium as a blank control were each added in an amount of 20 μL/well to the 96-well white plate. Further, an inhibitor for inhibiting the AP activity of the MKN-45 cells was added in an amount of 20 μL/well. After sealing the plate, the contents were mixed well. The plate was placed into a CO2 incubator (37° C., 5% CO2) and allowed to stand for 30 minutes. Subsequently, the plate was allowed to stand on ice for 1 minute, followed by addition of 160 μL/well of Lumi-Phos Plus (a chemiluminescent substrate, product of Lumigen Inc.). The plate was sealed again and placed in a light-shielded state into a CO2 incubator (37° C., 5% CO2). After the plate was allowed to stand for 15 to 30 minutes, luminescence was measured for about 5 to about 10 seconds using a luminometer.
The results of the reporter assay were expressed as Percent Control (or Inhibition), calculated according to the following formulae. The luminescence of each sample was calculated by subtracting the average of blank samples.

SMILES | COX2 relative mRNA expression level, Mean (COX2) | TNFa relative mRNA expression level, Mean (TNFα) | IL-8 relative mRNA expression level, Mean (IL-8) | NF-kappaB reporter (SEAP luminescence) IL-1b(+) mean, relative to control (NF-κB)
COc1ccc(CC2SC(=O)NC2=O)c2c1N(Cc1ccc(NC(=O)OCc3ccccc3)cc1)C(=O)CC2 (stereo not shown) [Test Compound 234] | 24.0% | 32.4% | 28.3% | 0.67
COc1ccc(OC(=O)Nc2ccc(CN3C(=O)CCc4c(CC5SC(=O)NC5=O)ccc(OC)c43)cc2)cc1 (stereo not shown) [Test Compound 237] | 25.9% | 26.2% | 25.9% | 0.57
COc1ccc(CC2SC(=O)NC2=O)c2c1N(CCCC(=O)Nc1ccccc1)C(=O)CC2 (stereo not shown) [Test Compound 608] | 42.4% | 30.8% | 36.5% | 0.71
COc1ccc(CC2SC(=O)NC2=O)c2c1N(CC(=O)Nc1ccc(C(F)(F)F)cc1)C(=O)CC2 (stereo not shown) [Test Compound 612] | 33.4% | 31.1% | 41.8% | 0.67
CCNC(=O)CCCN1C(=O)CCc2c(CC3SC(=O)NC3=O)ccc(OC)c21 (stereo not shown) [Test Compound 613] | 112.4% | 94.0% | 91.5% | 0.86
Cc1ccc(CC(=O)N2CCC(CCN3C(=O)CCc4c(CC5SC(=O)NC5=O)cccc43)CC2)cc1 (stereo not shown) [Test Compound 616] | 26.3% | 31.4% | 35.3% | 0.57
COc1ccc(CC2SC(=S)NC2=O)c2c1N(Cc1ccc(C(C)(C)C)cc1)C(=O)CC2 (stereo not shown) [Test Compound 914] | 32.9% | 66.7% | 61.9% | 0.53
COc1ccc(CC2SC(=S)NC2=O)c2c1N(Cc1ccc3ccccc3c1)C(=O)CC2 (stereo not shown) [Test Compound 971] | 30.8% | 63.4% | 55.9% | 0.56
COc1ccc(CC2SC(=S)NC2=O)c2c1N(CC1CC1)C(=O)CC2 (stereo not shown) [Test Compound 980] | 53.8% | 98.0% | 79.4% | 0.63
COc1ccc(CC2SC(=S)NC2=O)c2c1N(CCOc1ccccc1)C(=O)CC2 (stereo not shown) [Test Compound 981] | 37.8% | 75.7% | 70.4% | 0.68
Cc1ccc(CN2C(=O)CCc3c(CC4SC(=S)NC4=O)cccc32)cc1 (stereo not shown) [Test Compound 993] | 27.6% | 46.8% | 45.6% | 0.59
O=C1NC(=S)SC1Cc1ccc2c(c1)CCC(=O)N2Cc1ccc(-c2ccccc2)cc1 (stereo not shown) [Test Compound 995] | 28.1% | 29.3% | 38.3% | 0.66
O=C1NC(=S)SC1Cc1cccc2c1CCC(=O)N2Cc1ccc2ccccc2c1 (stereo not shown) [Test Compound 996] | 31.3% | 41.3% | 50.1% | 0.43
